{"source": "the supplement of paper PMC10307832", "test_in_all_cases": "relative viability (nuclei count vs DMSO), 5 days (fraction); higher = more cells survive", "key": {"[1]": {"test_system": "LCLC-103H", "procedure,_shortened": "(§1)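 One day after seeding in 1536-well plates, lung cancer cell lines were dosed by pin tool. Dosing was either single-drug or a fixed anchor-drug dose plus five library-drug doses (not always all listed) in √10 steps. After 5 days, nuclei were stained in one fix-and-stain step and counted on 4× images, and relative viability is the nuclei count of treated wells over that of vehicle wells, given as the median of duplicate plates.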"}, "[2]": {"test_system": "NCI-H358", "procedure,_shortened": "as §1"}, "[3]": {"test_system": "NCI-H2347", "procedure,_shortened": "as §1"}, "[4]": {"test_system": "LU99A", "procedure,_shortened": "as §1"}, "[5]": {"test_system": "NCI-H520", "procedure,_shortened": "as §1"}, "[6]": {"test_system": "ABC-1", "procedure,_shortened": "as §1"}, "[7]": {"test_system": "NCI-H2126", "procedure,_shortened": "as §1"}, "[8]": {"test_system": "ChaGo-K-1", "procedure,_shortened": "as §1"}, "[9]": {"test_system": "NCI-H1944", "procedure,_shortened": "as §1"}, "[10]": {"test_system": "NCI-H1395", "procedure,_shortened": "as §1"}, "[11]": {"test_system": "NCI-H322M", "procedure,_shortened": "as §1"}, "[12]": {"test_system": "SK-LU-1", "procedure,_shortened": "as §1"}, "[13]": {"test_system": "RERF-LC-KJ", "procedure,_shortened": "as §1"}, "[14]": {"test_system": "NCI-H1755", "procedure,_shortened": "as §1"}, "[15]": {"test_system": "HCC-827", "procedure,_shortened": "as §1"}, "[16]": {"test_system": "NCI-H1666", "procedure,_shortened": "as §1"}, "[17]": {"test_system": "NCI-H1793", "procedure,_shortened": "as §1"}, "[18]": {"test_system": "CAL-12T", "procedure,_shortened": "as §1"}, "[19]": {"test_system": "LXF-289", "procedure,_shortened": "as §1"}, "[20]": {"test_system": "NCI-H3122", "procedure,_shortened": "as §1"}, "[21]": {"test_system": "HCC-44", "procedure,_shortened": "as §1"}}}
{"smiles": "CN1CCN(CCOc2cc(OC3CCOCC3)c3c(Nc4c(Cl)ccc5c4OCO5)ncnc3c2)CC1", "note": "[Saracatinib] + O=C(CCCCCCC(=O)Nc1ccccc1)NO [Vorinostat] (partner 1 µM)", "values": [{"measurement": "relative viability", "setting": "[1]; first compound 0.02 µM", "value": 0.868}, {"measurement": "relative viability", "setting": "[1]; first compound 0.2 µM", "value": 0.733}, {"measurement": "relative viability", "setting": "[1]; first compound 0.6325 µM", "value": 0.846}, {"measurement": "relative viability", "setting": "[1]; first compound 2 µM", "value": 0.762}, {"measurement": "relative viability", "setting": "[2]; first compound 0.02 µM", "value": 0.645}, {"measurement": "relative viability", "setting": "[2]; first compound 0.2 µM", "value": 0.442}, {"measurement": "relative viability", "setting": "[2]; first compound 0.6325 µM", "value": 0.526}, {"measurement": "relative viability", "setting": "[2]; first compound 2 µM", "value": 0.255}, {"measurement": "relative viability", "setting": "[3]; first compound 0.02 µM", "value": 0.558}, {"measurement": "relative viability", "setting": "[3]; first compound 0.2 µM", "value": 0.413}, {"measurement": "relative viability", "setting": "[3]; first compound 0.6325 µM", "value": 0.719}, {"measurement": "relative viability", "setting": "[3]; first compound 2 µM", "value": 0.622}, {"measurement": "relative viability", "setting": "[4]; first compound 0.02 µM", "value": 0.445}, {"measurement": "relative viability", "setting": "[4]; first compound 0.2 µM", "value": 0.339}, {"measurement": "relative viability", "setting": "[4]; first compound 0.6325 µM", "value": 0.418}, {"measurement": "relative viability", "setting": "[4]; first compound 2 µM", "value": 0.404}, {"measurement": "relative viability", "setting": "[5]; first compound 0.02 µM", "value": 0.652}, {"measurement": "relative viability", "setting": "[5]; first compound 0.2 µM", "value": 0.471}, {"measurement": "relative viability", "setting": "[5]; first compound 0.6325 µM", "value": 0.598}, {"measurement": "relative viability", "setting": "[5]; first compound 2 µM", "value": 0.477}, {"measurement": "relative viability", "setting": "[6]; first compound 0.02 µM", "value": 0.905}, {"measurement": "relative viability", "setting": "[6]; first compound 0.2 µM", "value": 0.99}, {"measurement": "relative viability", "setting": "[6]; first compound 0.6325 µM", "value": 1.37}, {"measurement": "relative viability", "setting": "[6]; first compound 2 µM", "value": 0.857}, {"measurement": "relative viability", "setting": "[7]; first compound 0.02 µM", "value": 0.936}, {"measurement": "relative viability", "setting": "[7]; first compound 0.2 µM", "value": 0.647}, {"measurement": "relative viability", "setting": "[7]; first compound 0.6325 µM", "value": 0.713}, {"measurement": "relative viability", "setting": "[7]; first compound 2 µM", "value": 0.539}, {"measurement": "relative viability", "setting": "[8]; first compound 0.02 µM", "value": 0.797}, {"measurement": "relative viability", "setting": "[8]; first compound 0.2 µM", "value": 0.55}, {"measurement": "relative viability", "setting": "[8]; first compound 0.6325 µM", "value": 0.785}, {"measurement": "relative viability", "setting": "[8]; first compound 2 µM", "value": 0.65}, {"measurement": "relative viability", "setting": "[9]; first compound 0.02 µM", "value": 0.54}, {"measurement": "relative viability", "setting": "[9]; first compound 0.2 µM", "value": 0.542}, {"measurement": "relative viability", "setting": "[9]; first compound 0.6325 µM", "value": 0.509}, {"measurement": "relative viability", "setting": "[9]; first compound 2 µM", "value": 0.358}, {"measurement": "relative viability", "setting": "[10]; first compound 0.02 µM", "value": 0.766}, {"measurement": "relative viability", "setting": "[10]; first compound 0.2 µM", "value": 0.632}, {"measurement": "relative viability", "setting": "[10]; first compound 0.6325 µM", "value": 0.706}, {"measurement": "relative viability", "setting": "[10]; first compound 2 µM", "value": 0.464}, {"measurement": "relative viability", "setting": "[11]; first compound 0.02 µM", "value": 0.73}, {"measurement": "relative viability", "setting": "[11]; first compound 0.2 µM", "value": 0.744}, {"measurement": "relative viability", "setting": "[11]; first compound 0.6325 µM", "value": 0.702}, {"measurement": "relative viability", "setting": "[11]; first compound 2 µM", "value": 0.37}, {"measurement": "relative viability", "setting": "[12]; first compound 0.02 µM", "value": 0.758}, {"measurement": "relative viability", "setting": "[12]; first compound 0.2 µM", "value": 0.657}, {"measurement": "relative viability", "setting": "[12]; first compound 0.6325 µM", "value": 0.657}, {"measurement": "relative viability", "setting": "[12]; first compound 2 µM", "value": 0.509}, {"measurement": "relative viability", "setting": "[13]; first compound 0.02 µM", "value": 0.87}, {"measurement": "relative viability", "setting": "[13]; first compound 0.2 µM", "value": 0.729}, {"measurement": "relative viability", "setting": "[13]; first compound 0.6325 µM", "value": 0.753}, {"measurement": "relative viability", "setting": "[13]; first compound 2 µM", "value": 0.589}, {"measurement": "relative viability", "setting": "[14]; first compound 0.02 µM", "value": 0.687}, {"measurement": "relative viability", "setting": "[14]; first compound 0.2 µM", "value": 0.539}, {"measurement": "relative viability", "setting": "[14]; first compound 0.6325 µM", "value": 0.861}, {"measurement": "relative viability", "setting": "[14]; first compound 2 µM", "value": 0.707}, {"measurement": "relative viability", "setting": "[15]; first compound 0.02 µM", "value": 0.926}, {"measurement": "relative viability", "setting": "[15]; first compound 0.2 µM", "value": 0.643}, {"measurement": "relative viability", "setting": "[15]; first compound 0.6325 µM", "value": 0.354}, {"measurement": "relative viability", "setting": "[15]; first compound 2 µM", "value": 0.15}, {"measurement": "relative viability", "setting": "[16]; first compound 0.02 µM", "value": 0.988}, {"measurement": "relative viability", "setting": "[16]; first compound 0.2 µM", "value": 0.914}, {"measurement": "relative viability", "setting": "[16]; first compound 0.6325 µM", "value": 1.12}, {"measurement": "relative viability", "setting": "[16]; first compound 2 µM", "value": 1.2}, {"measurement": "relative viability", "setting": "[17]; first compound 0.02 µM", "value": 0.878}, {"measurement": "relative viability", "setting": "[17]; first compound 0.2 µM", "value": 0.482}, {"measurement": "relative viability", "setting": "[17]; first compound 0.6325 µM", "value": 0.842}, {"measurement": "relative viability", "setting": "[17]; first compound 2 µM", "value": 0.601}, {"measurement": "relative viability", "setting": "[18]; first compound 0.02 µM", "value": 0.804}, {"measurement": "relative viability", "setting": "[18]; first compound 0.2 µM", "value": 0.764}, {"measurement": "relative viability", "setting": "[18]; first compound 0.6325 µM", "value": 0.91}, {"measurement": "relative viability", "setting": "[18]; first compound 2 µM", "value": 0.696}, {"measurement": "relative viability", "setting": "[19]; first compound 0.02 µM", "value": 0.78}, {"measurement": "relative viability", "setting": "[19]; first compound 0.2 µM", "value": 0.573}, {"measurement": "relative viability", "setting": "[19]; first compound 0.6325 µM", "value": 0.773}, {"measurement": "relative viability", "setting": "[19]; first compound 2 µM", "value": 0.715}, {"measurement": "relative viability", "setting": "[20]; first compound 0.02 µM", "value": 0.984}, {"measurement": "relative viability", "setting": "[20]; first compound 0.2 µM", "value": 0.553}, {"measurement": "relative viability", "setting": "[20]; first compound 0.6325 µM", "value": 0.891}, {"measurement": "relative viability", "setting": "[20]; first compound 2 µM", "value": 0.788}, {"measurement": "relative viability", "setting": "[21]; first compound 0.02 µM", "value": 1.14}, {"measurement": "relative viability", "setting": "[21]; first compound 0.2 µM", "value": 1.14}, {"measurement": "relative viability", "setting": "[21]; first compound 0.6325 µM", "value": 1}, {"measurement": "relative viability", "setting": "[21]; first compound 2 µM", "value": 1.19}]}
